This note sets out measurements from PubChem BioAssay (NCI).

Common to all, as to test: NCI-60 cell line screen, 48 h
The subject of assay [1] is A549 NSCLC.
Assay [2] deals with ACHN renal.
Assay [3] has as its system CAKI-1 renal.
Assay [4] deals with HCC-2998 colon.
In assay [5] the test system is OVCAR-5 ovarian.
In assay [6] the test system is OVCAR-8 ovarian.
The test system of assay [7] is SNB-19 CNS.
For assay [8], the system named is SNB-78 CNS.
Assay [9] relates to UACC-257 melanoma.
Assay [10] deals with XF 498 CNS.

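Tested at 5 concentrations; 48 h exposure; 96-well plates; endpoints linearly interpolated, else capped at highest concentration. TGI marks complete inhibition of growth.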

With `CCCCCCCCC(O)C#CC(N)=O` (stereo not given), the TGI came to 36.2 µM in assay [1]; 31 µM in assay [2]; 32.3 µM in [3]; 22.4 µM in assay [4]; 43.9 µM in assay [5]; 21.4 µM in assay [6]. Besides, the TGI in assay [7] stood at 26.3 µM; in assay [8] it was 57.5 µM; in [9], 26.9 µM; in [10] it was 30.8 µM.
Turning to `COc1cc(C=O)c(-c2cc3c(cc2C2(C)OCCS2)OCO3)c(OC)c1OC` (stereo not given), the TGI in [1] is > 97 µM; in assay [2] it was > 99.1 µM; in assay [3], 71.4 µM; in [4] it was 31.2 µM; in assay [5], 129 µM; in [6], > 75.1 µM. The TGI in assay [7] is 168 µM; in [8], > 239 µM; in assay [9] it was 43.4 µM; in assay [10], 37.1 µM.
`Cc1ccc(C(=O)N2CCN(C(=O)c3ccc(C)cc3)c3ccccc32)cc1`: the TGI is > 100 µM in assay [1]; > 100 µM in [2]; 82.7 µM in [3]; 40.9 µM in assay [4]; > 100 µM in assay [5]; > 100 µM in assay [6]. Besides, the TGI in assay [7] was > 100 µM; in [8], > 100 µM; in [9], > 100 µM; in assay [10], 70 µM.
For `O=C(NCCCCCCNC(=O)n1cc(F)c(=O)[nH]c1=O)NCCCOCCOCCOCCOCCOCCOCCOCCOCCOCCOCCOCCOCCOCCOCCOCCOCCOCCOCCOCCOCCOCCCNC(=O)C(O)C(O)C(OC1OC(CO)C(O)C(O)C1O)C(O)CO` (stereo not given), the TGI in assay [1] was > 100 µM; in [2] it was > 100 µM; in assay [3] it was > 100 µM; in assay [4], > 87.2 µM; in assay [5] it was > 100 µM; in assay [6], > 100 µM. In addition, the TGI in assay [7], in assay [8], in [9] and in assay [10] was > 100 µM in each case.
Turning to `Cc1ccc(C(=O)N2c3ccccc3N(C)n3cccc3C2CC(=O)O)cc1` (stereo not given), the TGI in [1], in [2], in assay [3], in assay [4], in [5] and in assay [6] was > 100 µM in each case. Also, the TGI in [7], in [8], in assay [9] and in [10] was > 100 µM each time.
For the compound `CC1=C(C(=O)Nc2ccc([N+](=O)[O-])cc2)C(c2ccccc2O)C(C(=O)Nc2ccc([N+](=O)[O-])cc2)=C(C)N1`, the TGI was 90.4 µM in assay [1]; 58 µM in assay [2]; 62.1 µM in [3]; 27.2 µM in assay [4]; 55.8 µM in assay [5]; > 100 µM in [6]. Also, the TGI in assay [7] was > 100 µM; in [8], 91.8 µM; in [9] it was 51.1 µM; in assay [10], 31.2 µM.
